“Also recorded” adds a separate entry of the source. Read-outs that look alike come from different tables or passages of the source.
Key:
pNDRG1 (T346) = assay: Western blot of NDRG1 phosphorylation (T346); format: cell-based
Procedure: A) SGK1 mRNA levels in breast cancer cell lines sensitive or resistant to BYL719 (n=27). B) SGK1 mRNA levels in PIK3CA-mutant breast cancer cell lines sensitive or resistant to BYL719. C) Western blot of SGK1, SGK2, SGK3 and phosphorylated NDRG1 in a panel of PIK3CA—mutant breast cancer cell lines sensitive or resistant to BYL719. D) Western blot for NDRG1 and phosphorylated NDRG1 (T346) in BYL719-sensitive and -resistant breast cancer cell lines treated with BYL719 (1 μM) for 4 h. […] P values are calculated using Student's t-test. Error bars are ±SEM.
A) Dose-response curves from MDA-MB-361 cells transduced with pLenti7.3-LacZ or pLenti7.3-SGK1 (Δ60, S422D) treated with increasing concentrations of BYL719 for 6 days. B) Western blot analysis of LacZ and SGK1 MDA-MB-361 cells treated with BYL719 (1 μM) for 4 h. […] The DFG motif amino acids are indicated (D240, F241, G242). […] Hydrogen bonds are shown as dotted lines. […] L) IHC analysis of tumors from K collected at the end of the experiment. M) Top panel: growth curves of HCC1954 cells stably expressing doxycycline-inducible control (REN) or SGK1 knockdown treated with increasing concentrations of BYL719 for 6 days. Bottom panel: Western blot analysis of GFP-sorted control (REN) and SGK1 shRNA cells treated with BYL719 (1 μM) for 4 h. P values are calculated using Student's t-test. Error bars are ±SEM.
(§1) Then, membranes were probed using specific antibodies.

mTORC1 = assay: Western blot of mTORC1 signaling (pS6K, pS6, p4EBP1); format: cell-based; details: for sustained S6 phosphorylation: HCC1954 cells, presence or absence of BYL719 (1 μM)
Source text: (§2) For western blot analysis proteins were extracted in RIPA buffer supplemented with protease and phosphatase inhibitors (Roche). Protein lysates were separated using SDS-PAGE gels and transferred to a PVDF membrane. Then, membranes were probed using specific antibodies. PDK1, pAKT (S473), pAKT (T308), pS6K (T389), pS6 (S240/4), pS6 (235/6), p4EBP1 (S65), PARP, Actin, pRSK (S227), cleaved Caspase 3, pFOXO1/3 (T24/T32), SGK1, SGK2, SGK3, pNDRG1 (T346), NDRG1, Flag, HA, and phospho-RXRXX(S/T) (SEQ ID NO: 1) were from Cell Signaling Technology (CST).

TSC2 (S939) = assay: Western blot of phosphorylated TSC2 (S939); format: cell-based; details: HCC1954, PD0325901 1 μM, GSK1120212 50 nM, ± BYL719, 4 h
SGK1 = SGK1 (Homo sapiens, UniProt O00141); assay: ATP-competition assay; details: ATP at 100, 250, 350 and 500 μM
Source text: Recombinant GST-S6 was used as a substrate and phosphorylated S6 (S235/6) antibody was used for the detection of phosphorylated substrate by Western blot.

S6K signaling [1] = assay: Western blot of S6K targets in fibroblasts of a TSC2-null lymphangioleiomyomatosis patient; details: up to 30 μM, 4 h, TSC2-null LAM patient fibroblasts
Procedure: (§3) Recombinant GST-S6 was used as a substrate and phosphorylated S6 (S235/6) antibody was used for the detection of phosphorylated substrate by Western blot. […] Everolimus was used as a positive control at 200 nM. Error bars are ±SEM. […] Quantification of the m^7GTP-precipitated proteins is indicated in fold change. AZD8055 is used as a control at 1 μM). […] Error bars are ±SEM.
as §2

PDK1 = PDK1 (Homo sapiens, UniProt O15530); assay: selectivity screening, panel of 140 kinases; details: 1 μM
Procedure: (§4) IC50 value is indicated. […] Recombinant GST-S6 was used as a substrate and phosphorylated S6 (S235/6) antibody was used for the detection of phosphorylated substrate by Western blot. IC50 value is indicated. […] Everolimus was used as a positive control at 200 nM. Error bars are ±SEM. […] Quantification of the m^7GTP-precipitated proteins is indicated in fold change. AZD8055 is used as a control at 1 μM). […] Error bars are ±SEM.

S6K (ΔCT T389E) = assay: S6K kinase assay in 293T cells overexpressing constitutively active S6K; format: cell-based
SGK3 = SGK3 (Homo sapiens, UniProt Q96BR1); assay: in vitro SGK3 kinase activity assay; format: biochemical
S6K signaling [2] = details: up to 30 μM, 4 h, TSC2 KO mouse fibroblasts
Procedure: as §3, §2

S6K1 = assay: recombinant in vitro kinase assay of S6K ([…] peptide substrate); format: biochemical
RSK = assay: selectivity screening, panel of 140 kinases; details: 1 μM
Procedure: as §4

S6K = S6K (Homo sapiens, UniProt P23443); assay: selectivity screening, panel of 140 kinases; details: 1 μM
Procedure: as §4

PKC = assay: selectivity screening, panel of 140 kinases; details: 1 μM
Procedure: as §4

mTOR = mTOR (Homo sapiens, UniProt P42345); details: read-out: IC50, mTOR; 4EBP1 as substrate
SGK2 = SGK2 (Homo sapiens, UniProt Q9HBY8); assay: in vitro SGK2 kinase activity assay; format: biochemical
HCC1954 xenografts = assay: HCC1954 in vivo xenograft; design: species or system mice; details: HCC1954 xenografts, end of the experiment
Procedure: Animals were maintained and treated in accordance with Institutional Guidelines of Memorial Sloan Kettering Cancer Center (Protocol number 12-10-019). 5×10^6 cells in 1:1 PBS/Matrigel (Corning) were injected subcutaneously into six-week-old female athymic Foxn1^nu nude mice.
When tumors reached a volume of ˜150 mm^3 mice were randomized, treated, and tumors were measured twice a week during a month. At least 10 tumors per group were used in all the studies. […] Tumors were harvested at the end of the experiment three hours after the last dosage, fixed in 4% formaldehyde in PBS, and paraffin-embedded. […] Primary staining was followed by 60 minutes incubation with biotinylated goat anti-rabbit IgG (Vector labs) 1:200. Blocker D, Streptavidin-HRP and DAB detection kit (Ventana Medical Systems) were used according to the manufacturer instructions.

AKT1 = AKT1 (Homo sapiens, UniProt P31749); assay: selectivity screening, panel of 140 kinases; details: 1 μM
Procedure: as §4

CaCO2 cells = details: cited from earlier work
pRSK2 (S227) = assay: Western blot of phosphorylated RSK2 (S227), PDK1 target; format: cell-based; details: HCC1954 and JIMT1, 1 μM
Procedure: A) Dose-response curves from HCC1954 or JIMT1 shGFP and shPDK1 cells treated with BYL719 for 6 days. […] Staurosporine is used as a positive control (1 μM; 4 h). E) HCC1954 shGFP and shPDK1 in vivo xenograft treated with Vehicle or BYL719 (n=10/arm). F) IHC analysis of tumors from E collected at the end of the experiment. […] Staurosporine is used as a positive control (1 μM, 4 h). […] L) IHC analysis of tumors from K collected at the end of the experiment. M, N) JIMT1 in vivo xenograft tested as described in (K) and (L) for HCC1954 in vivo xenograft. P values are calculated using Student's t-test. Error bars are ±SEM.
as §1

Sequence of AKT1 (P31749 whole entry): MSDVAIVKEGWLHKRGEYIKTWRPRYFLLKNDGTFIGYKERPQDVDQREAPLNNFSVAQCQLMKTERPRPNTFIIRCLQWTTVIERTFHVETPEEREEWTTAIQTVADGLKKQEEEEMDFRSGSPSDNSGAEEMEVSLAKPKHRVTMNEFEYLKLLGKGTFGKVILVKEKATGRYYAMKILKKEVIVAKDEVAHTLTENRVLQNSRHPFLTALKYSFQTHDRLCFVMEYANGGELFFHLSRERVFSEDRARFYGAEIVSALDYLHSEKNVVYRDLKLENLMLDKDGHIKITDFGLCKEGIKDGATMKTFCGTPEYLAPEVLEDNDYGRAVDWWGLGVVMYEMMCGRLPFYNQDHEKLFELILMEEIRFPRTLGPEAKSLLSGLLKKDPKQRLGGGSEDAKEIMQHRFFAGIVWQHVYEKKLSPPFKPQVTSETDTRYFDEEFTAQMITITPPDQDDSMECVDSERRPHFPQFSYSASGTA
Sequence of SGK1 (O00141 whole entry): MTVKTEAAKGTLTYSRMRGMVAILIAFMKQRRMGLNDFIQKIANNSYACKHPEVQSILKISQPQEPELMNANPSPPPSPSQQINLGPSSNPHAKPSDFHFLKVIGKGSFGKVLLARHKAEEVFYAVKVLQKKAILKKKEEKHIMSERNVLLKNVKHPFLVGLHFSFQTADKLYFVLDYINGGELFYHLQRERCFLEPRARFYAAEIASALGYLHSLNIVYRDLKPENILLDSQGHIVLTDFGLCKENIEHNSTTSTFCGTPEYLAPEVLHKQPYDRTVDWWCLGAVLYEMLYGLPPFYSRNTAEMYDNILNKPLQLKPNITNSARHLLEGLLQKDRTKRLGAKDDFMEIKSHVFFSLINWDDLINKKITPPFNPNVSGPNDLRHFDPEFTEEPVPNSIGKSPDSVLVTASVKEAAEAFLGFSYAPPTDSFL
Sequence of SGK3 (Q96BR1 whole entry): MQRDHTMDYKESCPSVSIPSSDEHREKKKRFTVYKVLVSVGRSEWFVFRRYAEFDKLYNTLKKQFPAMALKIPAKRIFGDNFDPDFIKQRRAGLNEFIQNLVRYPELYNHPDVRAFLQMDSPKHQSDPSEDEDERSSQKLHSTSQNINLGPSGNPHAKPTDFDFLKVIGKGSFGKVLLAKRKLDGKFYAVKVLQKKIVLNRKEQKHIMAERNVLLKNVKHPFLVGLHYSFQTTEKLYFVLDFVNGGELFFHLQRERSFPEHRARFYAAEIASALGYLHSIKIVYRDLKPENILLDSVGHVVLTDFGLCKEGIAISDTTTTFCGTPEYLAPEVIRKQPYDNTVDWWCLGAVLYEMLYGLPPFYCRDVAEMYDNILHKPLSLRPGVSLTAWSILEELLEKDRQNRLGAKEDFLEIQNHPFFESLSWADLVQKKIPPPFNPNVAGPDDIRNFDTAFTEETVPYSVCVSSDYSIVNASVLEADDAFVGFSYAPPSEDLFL
Sequence of SGK2 (Q9HBY8 whole entry): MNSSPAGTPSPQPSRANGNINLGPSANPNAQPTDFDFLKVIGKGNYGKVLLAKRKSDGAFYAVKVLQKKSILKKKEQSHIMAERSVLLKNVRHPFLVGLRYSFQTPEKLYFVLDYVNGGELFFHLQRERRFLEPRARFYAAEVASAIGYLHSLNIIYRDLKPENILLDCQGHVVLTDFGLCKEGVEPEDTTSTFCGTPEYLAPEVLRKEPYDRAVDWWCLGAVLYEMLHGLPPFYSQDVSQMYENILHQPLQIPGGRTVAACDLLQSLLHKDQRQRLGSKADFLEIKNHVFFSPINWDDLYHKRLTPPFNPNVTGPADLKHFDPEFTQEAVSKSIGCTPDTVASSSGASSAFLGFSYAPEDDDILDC
Sequence of PDK1 (O15530 whole entry): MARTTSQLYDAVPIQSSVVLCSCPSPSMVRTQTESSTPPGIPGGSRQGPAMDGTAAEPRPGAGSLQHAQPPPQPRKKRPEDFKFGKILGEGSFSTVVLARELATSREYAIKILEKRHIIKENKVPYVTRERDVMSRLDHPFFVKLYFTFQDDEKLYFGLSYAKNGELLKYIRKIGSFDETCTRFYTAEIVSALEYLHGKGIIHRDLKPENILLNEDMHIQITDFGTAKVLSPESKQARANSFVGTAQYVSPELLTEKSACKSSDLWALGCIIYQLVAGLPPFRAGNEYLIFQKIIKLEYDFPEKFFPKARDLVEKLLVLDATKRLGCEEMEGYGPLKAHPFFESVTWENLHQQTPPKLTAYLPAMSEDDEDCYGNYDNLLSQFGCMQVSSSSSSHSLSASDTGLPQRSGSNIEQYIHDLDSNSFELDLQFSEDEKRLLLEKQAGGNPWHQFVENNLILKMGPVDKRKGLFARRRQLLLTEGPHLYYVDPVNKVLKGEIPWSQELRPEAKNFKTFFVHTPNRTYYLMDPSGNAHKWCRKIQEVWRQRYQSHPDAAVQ
Sequence of S6K (P23443 whole entry): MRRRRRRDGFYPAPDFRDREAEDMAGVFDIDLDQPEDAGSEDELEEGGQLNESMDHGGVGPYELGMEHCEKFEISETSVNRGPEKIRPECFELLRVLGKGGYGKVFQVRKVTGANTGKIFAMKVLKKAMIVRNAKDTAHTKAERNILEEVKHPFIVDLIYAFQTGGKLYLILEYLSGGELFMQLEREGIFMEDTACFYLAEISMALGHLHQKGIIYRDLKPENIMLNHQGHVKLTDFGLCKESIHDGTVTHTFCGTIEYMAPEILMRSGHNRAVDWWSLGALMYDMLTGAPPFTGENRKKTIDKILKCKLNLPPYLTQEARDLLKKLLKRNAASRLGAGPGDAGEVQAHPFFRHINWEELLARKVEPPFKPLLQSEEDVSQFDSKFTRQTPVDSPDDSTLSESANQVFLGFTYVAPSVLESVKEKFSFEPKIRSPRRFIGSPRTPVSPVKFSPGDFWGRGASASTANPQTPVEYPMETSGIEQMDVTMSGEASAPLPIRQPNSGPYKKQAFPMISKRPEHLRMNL

COc1ccc(-c2ccc3c(N4CCOC[C@@H]4C)nc(N4CCOC[C@@H]4C)nc3n2)cc1CO [AZD8055]
pFOXO3 (T32) and pNDRG1 (T346) levels (pNDRG1 (T346); HCC1954, increasing concentrations, single agent): did not reduce the levels of the substrates pFOXO3 (T32) and pNDRG1 (T346)

N#Cc1c(O)c2c(-c3ccc(-c4ccccc4O)cc3)csc2[nH]c1=O [A769662]
sustained S6 phosphorylation (mTORC1): unable to rescue the sustained phosphorylation of S6

O=CC[C@@H](O)[C@H](O)[C@H](O)CO [2-deoxyglucose]
sustained S6 phosphorylation (mTORC1): unable to rescue the sustained phosphorylation of S6

CC(=O)Nc1cccc(-n2c(=O)n(C3CC3)c(=O)c3c(Nc4ccc(I)cc4F)n(C)c(=O)c(C)c32)c1 [GSK1120212]
TSC2 phosphorylation at S939 (or mTORC1 downstream signaling) (TSC2 (S939)): did not detect changes in TSC2 phosphorylation at S939

Nc1n[nH]c2nc(-c3ccc(NS(=O)(=O)c4cccc(Cl)c4Cl)cc3)cnc12 [SGK1-inh]
effect of increasing ATP on potency (SGK1): decreased the potency | S6K signaling: pS6 (S235/6), pS6 (S240/4), pmTOR (S2448) (S6K signaling [1]): not able to reduce S6K signaling | activity against PDK1 (PDK1): no activity | IC50 (S6K (ΔCT T389E); 293T cells, HA-S6K (ΔCT T389E), GST-S6 substrate, read-out: IC50, S6K at the cellular level): ~20 µM | concentrations below which there is no activity towards S6K (S6K (ΔCT T389E); conclusion from cellular S6K assays): 20 to 30 µM | IC50 (SGK3): 0.59 µM | S6K signaling: pS6 (S235/6), pS6 (S240/4), pmTOR (S2448) (S6K signaling [2]): not able to reduce S6K signaling | IC50 (S6K1): 0.033 µM | activity against RSK (RSK): no activity | activity against S6K (S6K): inhibited | activity against PKC (PKC): no activity | IC50 (mTOR): > 5 µM | appropriate concentration to inhibit endogenous SGK1 (NDRG1 phosphorylation) (pNDRG1 (T346); HCC1954 cells, 4 hours, in the presence of BYL719 (1 μM)): 10 µM | IC50 (SGK2): 0.0028 µM | pS6 (S240/4) and 4EBP1 (T37/46) in tumors, IHC (HCC1954 xenografts): remained elevated | mTORC1 signaling (mTORC1; BYL719-resistant cells (HCC1954, JIMT1), 4 h, BYL719 1 μM, GSK2334470 1 μM, SGK1-inh 10 μM): some activity towards S6K signaling | activity against AKT1 (AKT1): no activity | permeability (CaCO2 cells): 13.3 ×10⁻⁶ cm/s

CNc1nc(-c2ccc3c(N)n[nH]c3c2)cc(N2C[C@@H](C(=O)NC3CCCCC3)CC[C@H]2C)n1 [GSK2334470]
phosphorylation of FOXO3 and NDRG1, added to AZD8055 (pNDRG1 (T346); HCC1954, GSK2334470 1 μM plus AZD8055): marked decrease in the phosphorylation of both FOXO3 and NDRG1 | pRSK2 (S227) (pRSK2 (S227)): appreciably reduced; also recorded: inhibited when cells are treated with GSK2334470 alone or in combination

O=C(NOC[C@H](O)CO)c1ccc(F)c(F)c1Nc1ccc(I)cc1F [PD0325901]
TSC2 phosphorylation at S939 (or mTORC1 downstream signaling) (TSC2 (S939)): did not detect changes in TSC2 phosphorylation at S939

— patent US11696924B2, “Combination therapy using PDK1 and PI3K inhibitors” (MEMORIAL SLOAN-KETTERING CANCER CENTER, priority 2015, dated 2023)
